Data taken from PubChem BioAssay AID1845219 (Molecular Pharmacology Branch, DTP, NCI, 2023).

System: SYO-1 tumor spheroids, viability % test/control
Test: Anticancer human tumor SYO-1 cell line growth inhibition;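 further: spheroids exposed to agents for 7 days before viability read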;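 on viability, T/C: 100% = DMSO vehicle control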
Settings: spheroids with HUVEC and MSC; for IC50: curve of first compound; for viability, T/C: stronger effect = lower value
How it was run: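 Complex tumor spheroids combined malignant cells with endothelial cells and mesenchymal stem cells. DNA-damaging drugs and DNA repair inhibitors were tested alone and in combination, at half-log dilutions down from clinical Cmax (top 10 microM if Cmax unknown), 0.25% DMSO final.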

[1] = second compound 30 pM, first compound 0.0316 µM
[2] = second compound 30 pM, first compound 0.1 µM
[3] = second compound 30 pM, first compound 0.316 µM
[4] = second compound 30 pM, first compound 1 µM
[5] = second compound 30 pM, first compound 3.16 µM
[6] = second compound 30 pM, first compound 10 µM
[7] = second compound 94.9 pM, first compound 0.0316 µM
[8] = second compound 94.9 pM, first compound 0.1 µM
[9] = second compound 94.9 pM, first compound 0.316 µM
[10] = second compound 94.9 pM, first compound 1 µM
[11] = second compound 94.9 pM, first compound 3.16 µM
[12] = second compound 94.9 pM, first compound 10 µM
[13] = second compound 0.0003 µM, first compound 0.0316 µM
[14] = second compound 0.0003 µM, first compound 0.1 µM
[15] = second compound 0.0003 µM, first compound 0.316 µM
[16] = second compound 0.0003 µM, first compound 1 µM
[17] = second compound 0.0003 µM, first compound 3.16 µM
[18] = second compound 0.0003 µM, first compound 10 µM
[19] = second compound 0.000949 µM, first compound 0.0316 µM
[20] = second compound 0.000949 µM, first compound 0.1 µM
[21] = second compound 0.000949 µM, first compound 0.316 µM
[22] = second compound 0.000949 µM, first compound 1 µM
[23] = second compound 0.000949 µM, first compound 3.16 µM
[24] = second compound 0.000949 µM, first compound 10 µM
[25] = second compound 0.003 µM, first compound 0.0316 µM
[26] = second compound 0.003 µM, first compound 0.1 µM
[27] = second compound 0.003 µM, first compound 0.316 µM
[28] = second compound 0.003 µM, first compound 1 µM
[29] = second compound 0.003 µM, first compound 3.16 µM
[30] = second compound 0.003 µM, first compound 10 µM

| SMILES | IC50 (second compound 30 pM) [µM] | IC50 (second compound 94.9 pM) [µM] | IC50 (second compound 0.0003 µM) [µM] | IC50 (second compound 0.000949 µM) [µM] | IC50 (second compound 0.003 µM) [µM] | viability, T/C [1] [%] | viability, T/C [2] [%] | viability, T/C [3] [%] | viability, T/C [4] [%] | viability, T/C [5] [%] | viability, T/C [6] [%] | viability, T/C [7] [%] | viability, T/C [8] [%] | viability, T/C [9] [%] | viability, T/C [10] [%] | viability, T/C [11] [%] | viability, T/C [12] [%] | viability, T/C [13] [%] | viability, T/C [14] [%] | viability, T/C [15] [%] | further results |
| --- | --- | --- | --- | --- | --- | --- | --- | --- | --- | --- | --- | --- | --- | --- | --- | --- | --- | --- | --- | --- | --- |
| CC(C)n1c(=O)n(C)c2cnc3cc(F)c(-c4ccc(OCCCN5CCCCC5)nc4)cc3c21 + COc1cc2c(cc1O)CCNC21CSC2c3c(OC(C)=O)c(C)c4c(c3C(COC1=O)N1C(O)C3Cc5cc(C)c(OC)c(O)c5C(C21)N3C)OCO4 | 7.38 | < 0.0316 | < 0.0316 | < 0.0316 | < 0.0316 | 99.7 | 97.7 | 98 | 99.4 | 89.7 | 35.5 | 37.6 | 33.4 | 43.2 | 52.4 | 50 | 21.6 | 2.89 | 2.78 | 3.15 | viability, T/C [16]: 3.23%; viability, T/C [17]: 2.46%; viability, T/C [18]: 0.62%; viability, T/C [19]: 0.98%; viability, T/C [20]: 1.01%; viability, T/C [21]: 0.98%; viability, T/C [22]: 1.04%; viability, T/C [23]: 0.96%; viability, T/C [24]: 0.32%; viability, T/C [25]: 0.12%; viability, T/C [26]: 0.12%; viability, T/C [27]: 0.12%; viability, T/C [28]: 0.13%; viability, T/C [29]: 0.13%; viability, T/C [30]: 0.22% |
| CC1COCCN1c1cc(-c2ccnn2C)c2ccnc(-c3ccn[nH]3)c2n1 (stereo not given) + COc1cc2c(cc1O)CCNC21CSC2c3c(OC(C)=O)c(C)c4c(c3C(COC1=O)N1C(O)C3Cc5cc(C)c(OC)c(O)c5C(C21)N3C)OCO4 | < 0.0316 | < 0.0316 | < 0.0316 | < 0.0316 | < 0.0316 | 3.62 | 1.79 | 1.29 | 0.95 | 0.42 | 0.48 | 1.83 | 1.41 | 1.17 | 0.6 | 0.3 | 0.41 | 1.24 | 1.22 | 0.9 | viability, T/C [16]: 0.63%; viability, T/C [17]: 0.26%; viability, T/C [18]: 0.29%; viability, T/C [19]: 1.03%; viability, T/C [20]: 0.61%; viability, T/C [21]: 0.54%; viability, T/C [22]: 0.31%; viability, T/C [23]: 0.2%; viability, T/C [24]: 0.19%; viability, T/C [25]: 0.11%; viability, T/C [26]: 0.11%; viability, T/C [27]: 0.09%; viability, T/C [28]: 0.09%; viability, T/C [29]: 0.1%; viability, T/C [30]: 0.16% |
| COc1cc(C)[nH]c(=O)c1CN1CCc2c(Cl)cc(C(OC)C3COC3)c(Cl)c2C1=O (stereo not given) + COc1cc2c(cc1O)CCNC21CSC2c3c(OC(C)=O)c(C)c4c(c3C(COC1=O)N1C(O)C3Cc5cc(C)c(OC)c(O)c5C(C21)N3C)OCO4 | 1.49 | 0.198 | < 0.0316 | < 0.0316 | < 0.0316 | 104 | 104 | 79.3 | 55.3 | 42.5 | 40.5 | 94 | 65.8 | 39.9 | 20.9 | 16.5 | 11.5 | 6.74 | 4 | 3.76 | viability, T/C [16]: 3.14%; viability, T/C [17]: 2.73%; viability, T/C [18]: 2.74%; viability, T/C [19]: 0.89%; viability, T/C [20]: 0.96%; viability, T/C [21]: 0.72%; viability, T/C [22]: 0.67%; viability, T/C [23]: 0.86%; viability, T/C [24]: 0.76%; viability, T/C [25]: 0.11%; viability, T/C [26]: 0.09%; viability, T/C [27]: 0.1%; viability, T/C [28]: 0.11%; viability, T/C [29]: 0.11%; viability, T/C [30]: 0.17% |
| COc1ccc([C@@H](O)c2cc(-c3ncnc4cc(N5CCOCC5)ccc34)c(F)cc2Cl)nn1 + COc1cc2c(cc1O)CCNC21CSC2c3c(OC(C)=O)c(C)c4c(c3C(COC1=O)N1C(O)C3Cc5cc(C)c(OC)c(O)c5C(C21)N3C)OCO4 | 3.17 | 0.772 | < 0.0316 | < 0.0316 | < 0.0316 | 104 | 103 | 105 | 102 | 50.1 | 2.83 | 97.7 | 103 | 94.9 | 37 | 5.43 | 7.51 | 12.2 | 9.57 | 3.06 | viability, T/C [16]: 1.34%; viability, T/C [17]: 0.26%; viability, T/C [18]: 0.17%; viability, T/C [19]: 0.88%; viability, T/C [20]: 0.86%; viability, T/C [21]: 0.54%; viability, T/C [22]: 0.23%; viability, T/C [23]: 0.03%; viability, T/C [24]: 0.15%; viability, T/C [25]: 0.12%; viability, T/C [26]: 0.12%; viability, T/C [27]: 0.1%; viability, T/C [28]: 0.24%; viability, T/C [29]: 0.38%; viability, T/C [30]: 1.5% |
| Cc1cc(C)c(CNC(=O)c2cc(-c3ccc(CN4CCOCC4)cc3)cc3c2cnn3C2CCCC2)c(=O)[nH]1 + COc1cc2c(cc1O)CCNC21CSC2c3c(OC(C)=O)c(C)c4c(c3C(COC1=O)N1C(O)C3Cc5cc(C)c(OC)c(O)c5C(C21)N3C)OCO4 | > 10 | 7.98 | < 0.0316 | < 0.0316 | < 0.0316 | 103 | 97.2 | 100 | 103 | 107 | 96.3 | 102 | 96.3 | 99.2 | 99.8 | 84.5 | 41.1 | 18.4 | 14.3 | 13.3 | viability, T/C [16]: 11%; viability, T/C [17]: 12.2%; viability, T/C [18]: 3.97%; viability, T/C [19]: 0.91%; viability, T/C [20]: 0.86%; viability, T/C [21]: 1.11%; viability, T/C [22]: 0.97%; viability, T/C [23]: 0.9%; viability, T/C [24]: 1.08%; viability, T/C [25]: 0.13%; viability, T/C [26]: 0.13%; viability, T/C [27]: 0.13%; viability, T/C [28]: 0.15%; viability, T/C [29]: 0.14%; viability, T/C [30]: 0.2% |
| [2H]c1nc(C)nc([2H])c1-c1cc(NC[C@@H](C)c2cccc3c(C(=O)NC)ccnc23)ncn1 + COc1cc2c(cc1O)CCNC21CSC2c3c(OC(C)=O)c(C)c4c(c3C(COC1=O)N1C(O)C3Cc5cc(C)c(OC)c(O)c5C(C21)N3C)OCO4 | > 10 | > 10 | < 0.0316 | < 0.0316 | < 0.0316 | 95.9 | 101 | 102 | 102 | 104 | 102 | 97.7 | 97.1 | 99.6 | 98.8 | 100 | 95.7 | 10.9 | 11.6 | 12.2 | viability, T/C [16]: 11.5%; viability, T/C [17]: 13.1%; viability, T/C [18]: 5.66%; viability, T/C [19]: 0.9%; viability, T/C [20]: 0.98%; viability, T/C [21]: 0.92%; viability, T/C [22]: 0.87%; viability, T/C [23]: 0.92%; viability, T/C [24]: 0.94%; viability, T/C [25]: 0.96%; viability, T/C [26]: 1.13%; viability, T/C [27]: 4.62%; viability, T/C [28]: 0.12%; viability, T/C [29]: 0.12%; viability, T/C [30]: 0.2% |
